{
  "source": "paper PMC7930822",
  "about": "“Phase I Trial to Evaluate the Tolerance, Pharmacokinetics and Efficacy of the Broad-Spectrum ErbB Family Inhibitor Larotinib Mesylate in Patients With Advanced Solid Tumors” (Frontiers in Pharmacology, 2021)",
  "key": {"wild-type EGFR [1]": {"tested_on": "wild-type EGFR", "assay": "in vitro kinase inhibition, wild-type EGFR", "format": "biochemical", "description": "Larotinib mesylate (Figure 1) is a novel, potent broad-spectrum TKI with EGFR as the main target with a 50% inhibitory concentration (IC50) of 0.6 nM (data not published). […] We hypothesized that the characteristics of larotinib mesylate that facilitate simultaneous inhibition of multiple kinases may improve the tumor inhibiting effect of the drug and decrease the emergence of resistance to larotinib mesylate in solid tumor cells."}, "tumor-bearing mice [2]": {"tested_on": "tumor-bearing mice", "assay": "preclinical pharmacodynamic study in tumor-bearing mice", "format": "in vivo", "details": "from effective dose of 18 mg/kg in tumor-bearing mice, by body surface area", "description": "Animal toxicology studies of larotinib mesylate were conducted in both Sprague–Dawley rats and beagle dogs. […] The maximal tolerable doses (MTDs) were 20 and 25 mg/kg in Sprague–Dawley rats and beagle dogs, respectively.\nAccording to the guidance for clinical trials of antitumor agents published by the Center for Drug Evaluation and Research in China, for cytotoxic antitumor agents, the initial dose in a phase I study can be calculated as 1/10 of the MTD in rodents or 1/6 of the MTD in non-rodent animals ([CFDA, 2012]). For non-cytotoxic antitumor agents, because of their relatively lower toxicity, the initial dose can be set higher. According to the reported preclinical results for larotinib mesylate, the MTD in Sprague–Dawley rats translated to a human equivalent dose of 192 mg/d according to body surface area (calculated by 60 kg body weight), for which 1/10 is 19.2 mg/d ([FDA, 2005]). […] Taking the above results for the toxicology, preclinical pharmacology and pharmacodynamics, and drug specifications (10, 50 and 100 mg) of larotinib mesylate into account, we calculated a recommended starting dose of 50 mg larotinib mesylate for a phase I, first-in-human clinical study, lower than human equivalent 1/6 MTD translated from beagle dogs and near the human equivalent effective dose translated from tumor-bearing mice. […]"}, "wild-type EGFR [3]": {"tested_on": "wild-type EGFR", "set-up": "method as in data not published", "details": "ref data not published, cited from earlier work"}, "[4]": {"tested_on": "EGFR with the L858R mutation", "set-up": "method as in data not published", "details": "ref data not published; cited from earlier work"}, "HER2": {"tested_on": "HER2", "set-up": "method as in data not published", "details": "ref data not published; cited from earlier work"}, "HER4": {"tested_on": "HER4", "set-up": "method as in data not published", "details": "ref data not published; cited from earlier work"}, "[5]": {"biological_target": "Bruton’s tyrosine kinase (BTK)", "set-up": "method as in data not published", "details": "ref data not published; cited from earlier work"}, "tumor-bearing mice [6]": {"tested_on": "tumor-bearing mice", "set-up": "method as in data not published", "details": "dose of 18 mg/kg, ref data not published; cited from earlier work"}},
  "note": "Structures can show the parent of a compound that is named as a salt. Where two headings read alike, the source gives them in different places.",
  "data": [
    {"molecule": "COc1cc2ncnc(Nc3ccc(F)c(Cl)c3)c2cc1OCCCN1C[C@@H]2OCCO[C@@H]2C1", "note": "[larotinib mesylate]", "values": [
      {"measurement": "fold greater inhibitory activity than gefitinib", "setting": "wild-type EGFR [1]; ref Baselga and Averbuch, 2000", "result": 37, "unit": "fold"},
      {"measurement": "fold greater inhibitory activity than erlotinib", "setting": "wild-type EGFR [1]; ref Moyer et al., 1997", "result": 3, "unit": "fold"},
      {"measurement": "human equivalent effective dose", "setting": "tumor-bearing mice [2]", "result": 86.4, "unit": "mg/day"},
      {"measurement": "IC50", "setting": "wild-type EGFR [3]; EGFR as the main target", "result": 0.0006, "unit": "µM"},
      {"measurement": "IC50", "setting": "wild-type EGFR [3]; wild-type EGFR", "result": 0.000611, "unit": "µM"},
      {"measurement": "IC50", "setting": "[4]", "result": 0.000563, "unit": "µM"},
      {"measurement": "IC50", "setting": "HER2", "result": 0.253, "unit": "µM"},
      {"measurement": "IC50", "setting": "HER4", "result": 0.084, "unit": "µM"},
      {"measurement": "IC50", "setting": "[5]", "result": 0.196, "unit": "µM"},
      {"measurement": "tumor-inhibiting rate", "setting": "tumor-bearing mice [6]", "result": "exceeding 60%"}
    ]}
  ]
}
